Laboratory results published in US20240076667A1, “APPLICATION OF ANTISENSE OLIGONUCLEOTIDE TARGETING PBX1 PROMOTER REGION G-QUADRUPLEX IN PREPARATION OF MEDICINE FOR TREATING MELANOMA” (JILIN UNIVERSITY, priority 2022, published 2024).
Entries after “also recorded” stand apart in the source; their conditions may differ.

Legend:
PBX1 promoter region = experiment: BG4 chromatin immunoprecipitation (ChIP) followed by qRT-PCR in A375 cells; assay type: cell-based, human
Method: (§1) FIGS. 2A-2G are features formed by dG1 and rG1 in vitro and in cells. In (FIG. 2A), Left: CD spectra of WT and Mut dG1, and Right: CD spectra of WT and Mut rG1. CD is circular dichroism. In (FIG. 2B), Left: gel mobility assay of WT and Mut dG1, and Right: gel mobility assay of WT and Mut rG1. In (FIG. 2C), under specified conditions, fluorescence-on assay of NMM in absence of presence of dG1 or rG1, and their G/A mutant. In (FIG. 2D), the occupancy of BG4 in the PBX1 promoter region is measured in A375 cells by BG4 chromatin immunoprecipitation (ChIP), followed by qRT-PCR. In (FIG. 2E), RNA immunoprecipitation (RIP) detection is performed to show the association between BG4 and the PBX1 transcript in A375 cells, followed by qRT-PCR. In (FIG. 2F), the occupancy of BG4 in the PBX1 promoter region is measured, by the BG4 chip, in A375 cells treated with or without PDS and TMPyP4, followed by qRT-PCR. […] SEM represents the standard error of mean. *P< 0.05, **P< 0.01***P< 0.001.
In this embodiment, several methods are further employed to verify the formation of dG1 and rG1. First, circular dichroism (CD) is used to examine the molar ellipticity of dG1 and rG1 sequences (33 nt) and mutants thereof, and the mutants are designed to eliminate G4 formation. […] Both dG1 and rG1 are found to enhance the fluorescence of N N (FIG. 2C). […]

PBX1 transcript = experiment: BG4 RNA immunoprecipitation (RIP) followed by qRT-PCR in A375 cells; assay type: cell-based, human
Method: as §1
In this embodiment, several methods are further employed to verify the formation of dG1 and rG1. First, circular dichroism (CD) is used to examine the molar ellipticity of dG1 and rG1 sequences (33 nt) and mutants thereof, and the mutants are designed to eliminate G4 formation. […] N-methyl mesoporphyrin IX (NMN) is the well-known fluorescent G4-specific ligand that can be used for studies of G4 formation in vitro. Both dG1 and rG1 are found to enhance the fluorescence of N N (FIG. 2C). In addition, in this embodiment, chromatin immunoprecipitation (ChIP) and RNA immunoprecipitation (RIP) detection are performed in A375 cells using the well-known G4-specific antibody BG4. […] In summary, dG1 and rG1 can fold stable G4 structures in vitro and in cells. […] Therefore, the ability of these G4-specific ligands to interact with PBX1 G4s is investigated next.
Control:mG*mT*mC*mC*mA*mC*mA*mA*mA*mC*mA*mC*mA*mA*mC*mT*mC* mC*mT*mG*). […] This example also establishes short-term cultures of patient-derived melanoma xenograft (PDX)-derived tumor cells (PDCs) (FIG. 5D). […]

PBX1 = PBX1 mRNA and protein levels by qRT-PCR and western blot in B16-F10 cells; assay type: cell-based, mouse; conditions: for mRNA level of PBX1: qRT-PCR; for protein level of PBX1: western blot, normalized to GAPDH
Method: RNA extraction and quantitative RT-PCR detection: total RNA is extracted from cultured cells by using TRIzol (Invitrogen, USA), then is converted into cDNA by SuperScript III First-Strand Synthesis SuperMix (Invitrogen, USA). qRT-PCR detection is performed by using SYBR Green®Mix (Invitrogen, USA) in ABI 7500 (Invitrogen, USA). A relative expression quantity of RNA is calculated by using a comparative CT method.
Immunoblotting: for protein analysis of a whole-cell lysate, cells are lysed with RIPA (CWBIO, Beijing, China) buffer solution. For tumors, liquid nitrogen is first used to pulverize tissues. Then, the lysate is generated on ice with the RIPA (CWBIO, Beijing, China) buffer solution for 20 minutes, and then centrifuged at 4° C., 13000 rpm for 15 minutes. Protein-containing supernatant is transferred to the fresh microcentrifuge tube, and stored at −20° C. (short-term storage) for subsequent use. The protein is quantified by using the BIO-RAD DC protein assay. The total proteins are electrophoresed on SDS-polyacrylamide gels. Then, the proteins are transferred to polyvinylidene difluoride (PVDF) membrane. After incubation with the primary antibody overnight on the shaker at 4° C., the membrane is washed 6 times (5 minutes each time) with TBS-T (Invitrogen, USA). Then, blots are incubated with horseradish peroxidase (IRP)-conjugated secondary antibodies for 60 minutes at RT on the plate shaker. The membrane is cleaned by TBS-T (6×5 minutes). Detection on immunoreactive bands is performed by using SuperSignalmWest Pico chemiluminescence substrate kit (Thermo Fisher Scientific, USA) and Western blotting detection system (BioRad, USA). GAPDH is used as the loading control for western blotting. The intensity levels of the bands are normalized to GAPDH.

dG1 = experiment: Thermal stability of PBX1 dG1 with G4-specific ligands; assay type: binding
A375 cells [1] = experiment: In vitro cell invasion experiment (Transwell), A375; assay type: cell-based, human; conditions: Transwell with Matrigel, 24 hours
Method: In vitro cell invasion experiment: in the Transwell invasion experiment, Matrigel is used as an invasive supraluminal membrane barrier (Corning, USA). The lower transwell chamber is filled with 2.5% serum containing DMEM medium. The cells are suspended at an upper chamber. After incubation for 24 hours, the filter is removed, and cells on the membrane are fixed by using methanol. Cells stained with 0.5% crystal violet infiltrate the surrounding matrix. The dye is washed with water and the cells are examined under the microscope (Leica, Germany). Six micrographs are taken for each person.

A375 cells [2] = experiment: Cell proliferation assay (CCK-8), A375; assay type: cell-based, human; conditions: dose-dependent manner
Method: Cell proliferation assay: cell viability is determined by the cell counting kit-8 (CCK-8) according to the manufacturer's instructions (Abcam, UK). Cells (2000 cells per well) are incubated in the 96-well plate in triplicate and then added to each well at various time points at the final concentration of 10%, and incubation is continued at 37° C. After 60 minutes, the absorbance of the sample is measured at the wavelength of 450 nm. Data is analyzed using GraphPad Prism software.

| SMILES | pull-down of the PBX1 promoter by BG4 (PBX1 promoter region) | PBX1 transcript pulled down by BG4 (PBX1 transcript) | mRNA level of PBX1 (PBX1) | protein level of PBX1 (PBX1) | thermal stability of dG1 (dG1) | invasion (A375 cells [1]) | cell viability (activity) measured by CCK8 (A375 cells [2]) |
| --- | --- | --- | --- | --- | --- | --- | --- |
| C[n+]1ccc(-c2c3nc(c(-c4cc[n+](C)cc4)c4ccc([nH]4)c(-c4cc[n+](C)cc4)c4ccc([nH]4)c(-c4cc[n+](C)cc4)c4nc2C=C4)C=C3)cc1 [TMPyP4] | enhance | enhance | inhibit; also recorded: remarkably reduces | inhibit; also recorded: remarkably reduces | remarkably enhance | inhibit | reduce; also recorded: remarkably reduces |
| NCCOc1cc(C(=O)Nc2cc(OCCN)c3ccccc3n2)nc(C(=O)Nc2cc(OCCN)c3ccccc3n2)c1 [PDS, Pyridostatin] | enhance | enhance | inhibit; also recorded: remarkably reduces | inhibit; also recorded: remarkably reduces | remarkably enhance | inhibit | reduce; also recorded: remarkably reduces |
